Data as given in patent US11623944B2, “Paenibacillus strain, antifungal compounds, and methods for their use” (Bayer CropScience LP, priority 2015, dated 2023).
Where a SMILES comes first, the peptide text is derived from it. Bridges are numbered along the chain shown (N, C = ends). [ ]: non-standard residue; d: D form. The star is where a group is joined. ξ: configuration not given here. Pentadecanoyl(3ξ-OH,15-Gua) = N=C(N)NCCCCCCCCCCCCC(O)CC(=O)*; d(aThr) = C[C@@H](O)[C@@H](N)C(=O)O

Assays:
[1] = system: Paenibacillus sp. strain NRRL B-50972; experiment: Antibiotic sensitivity on sLB agar; format: cell-based; details: growth after 24, 48, 72 hours at 30° C.
[2] = system: Alternaria solani (ALTESO); experiment: In vitro antifungal 96-well plate assay (PRESTOBLUE); format: cell-based; details: for potency of asparagine analogue relative to its glutamine counterpart: Fusaricidin A vs Fusaricidin B, LiF08a vs LiF08b; for potency of asparagine analogue relative to its glutamine counterpart / relative potency of analogues differing at amino acid positions (2) and (3): FIG. 17; for relative potency of analogues differing at amino acid positions (2) and (3): Fusaricidin A, LiF05a, LiF06a, LiF08a compared; for Efficacy in % found: 0.25 mg/mL, alone
[3] = system: Xanthomonas campestris (XANTAV); experiment: In vitro antibacterial 96-well plate assay (absorbance)
Procedure: (§1) The in vitro antibacterial 96-well plate assay uses absorbance as an indicator for bacterial growth. The assay measures the potency of a sample to inhibit bacterial growth by comparing the absorbance of the untreated wells to the sample wells. The last dilution/concentration that inhibits the growth of the bacteria is called the MIC (minimum inhibitory concentration) and this value can be used to compare the efficacy of different samples. The assay was evaluated with three agricultural-relevant bacterial diseases: Xanthomonas campestris (XANTAV), Pseudomonas syringae (PSDM™), and Erwinia carotovora (ERWICA).

[4] = system: Colletotrichum lagenarium (COLLLA); experiment: In vitro antifungal 96-well plate assay (PRESTOBLUE); format: cell-based; details: Minimum Inhibitory Concentration for 80%
[5] = system: Pseudomonas syringae (PSDMTM); experiment: In vitro antibacterial 96-well plate assay (absorbance); details: NDR = no inhibition of bacterial growth at the highest concentrations tested
Procedure: as §1

[6] = system: Erwinia carotovora (ERWICA); experiment: as above; details: NDR = no inhibition of bacterial growth at the highest concentrations tested
Procedure: as §1

[7] = system: Botrytis cinerea (BOTRCI); experiment: In vitro antifungal 96-well plate assay (PRESTOBLUE); format: cell-based; details: Minimum Inhibitory Concentration for 80%
Procedure: The in vitro antifungal 96-well plate assay utilizes the resazurin-based cell viability reagent PRESTOBLUE® as an indicator for fungal growth. […] The assay was prepared with three agricultural-relevant fungal diseases: Alternaria solani ([…]), Colletotrichum lagenarium (COLLLA), and Botrytis cinerea (BOTRCI).

With `CC[C@H]1OC(=O)[C@H](C)[C@@H](O[C@H]2C[C@@](C)(OC)[C@@H](O)[C@H](C)O2)[C@H](C)[C@@H](O[C@@H]2O[C@H](C)C[C@H](N(C)C)[C@H]2O)[C@](C)(O)C[C@@H](C)C(=O)[C@H](C)[C@@H](O)[C@]1(C)O` [Erythromycin] the Sensitive/Resistant ([1]; antibiotic 5 μg/mL) was “Sensitive”.
With `CN(C)[C@@H]1C(=O)C(C(N)=O)=C(O)[C@@]2(O)C(=O)C3=C(O)c4c(O)cccc4[C@@](C)(O)[C@H]3C[C@@H]12` [Tetracyclin] the Sensitive/Resistant ([1]; antibiotic 5 μg/mL) was “Sensitive”.
With `CCC[C@@H]1C[C@@H](C(=O)N[C@@H]([C@H]2O[C@H](SC)[C@H](O)[C@@H](O)[C@H]2O)[C@@H](C)O)N(C)C1` [Lincomycin] the Sensitive/Resistant ([1]; antibiotic 25 μg/mL) was “Resistant”.
For `CC[C@@H](C)[C@H]1NC(=O)[C@@H](NC(=O)CC(O)CCCCCCCCCCCCN=C(N)N)[C@@H](C)OC(=O)[C@@H](C)NC(=O)[C@@H](CC(N)=O)NC(=O)[C@@H]([C@@H](C)O)NC(=O)[C@H]([C@@H](C)CC)NC1=O` (some centres unmarked) [LiF08a] ({Pentadecanoyl(3ξ-OH,15-Gua)}-T[dI]I[d(aThr)][dN][dA]; ester 1-C), the “potency of asparagine analogue relative to its glutamine counterpart” value [2] was “over twice more potent” and the “relative potency of analogues differing at amino acid positions (2) and (3)” value [2] was “most potent”.
For `CC(C)[C@@H]1NC(=O)[C@@H](C(C)C)NC(=O)[C@@H](NC(=O)CC(O)CCCCCCCCCCCCN=C(N)N)[C@@H](C)OC(=O)[C@@H](C)NC(=O)[C@@H](CC(N)=O)NC(=O)[C@@H]([C@@H](C)O)NC1=O` (some centres unmarked) [Fusaricidin A] ({Pentadecanoyl(3ξ-OH,15-Gua)}-T[dV]V[d(aThr)][dN][dA]; ester 1-C), the “MIC80 XANTAV” value [3] was 24 ppm, the “MIC80 COLLLA” value [4] was 6.3 ppm and the “MIC80 PSDMTM” value [5] was “NDR*”. The “MIC80 ERWICA” value [6] was 75 ppm, the “MIC80 BOTRCI” value [7] was 1.5 ppm and the “potency of asparagine analogue relative to its glutamine counterpart” value [2] was “over twice more potent”. For the same compound, the “relative potency of analogues differing at amino acid positions (2) and (3)” value [2] was “most potent”, the “MIC80 ALTESO” value ([2]; Minimum Inhibitory Concentration for 80%) was 1.6 ppm and the “Efficacy in % found” value ([2]; Table 23) was 39.0%. The “Efficacy in % found” value ([2]; Table 24) was 42.0%.
`CN[C@@H]1[C@H](O)[C@H](NC)[C@H]2O[C@@]3(O)C(=O)C[C@@H](C)O[C@H]3O[C@@H]2[C@H]1O` [Spectinomycin] was tested, and the Sensitive/Resistant ([1]; antibiotic 100-250 μg/mL) was “Resistant (growth, albeit reduced,”.
`O=C(N[C@H](CO)[C@H](O)c1ccc([N+](=O)[O-])cc1)C(Cl)Cl` [Chloramphenicol] was tested, and the Sensitive/Resistant ([1]; antibiotic 5 μg/mL) was “Resistant”.
